Series [1] relates to Mus musculus. Kind of series: Antidiabetic activity in streptozotocin-induced diabetic ICR mouse assessed as change in body weight at 10 mg/kg, po administered QD measured 1 week after STZ challenge (reference value: 33.25 +/- 0.75 g). In kind it is functional.
Series [2] relates to Mus musculus. Kind of series: Antidiabetic activity in streptozotocin-induced diabetic ICR mouse assessed as change in body weight at 10 mg/kg, po administered QD measured 9 weeks after STZ challenge (reference value: 34.15 +/- 1.16 g). In kind it is functional.
The subject of series [3] is Mus musculus. Put plainly: Antidiabetic activity in streptozotocin-induced diabetic ICR mouse assessed as change in body weight at 20 mg/kg, po administered QD measured 1 week after STZ challenge (reference value: 33.25 +/- 0.75 g). The class given is functional.
In series [4] the test system is Mus musculus. Kind of series: Antidiabetic activity in streptozotocin-induced diabetic ICR mouse assessed as change in body weight at 20 mg/kg, po administered QD measured 9 weeks after STZ challenge (reference value: 34.15 +/- 1.16 g). The class given is functional.
For series [5], the system named is Mus musculus. Put plainly: Antidiabetic activity in streptozotocin-induced diabetic ICR mouse assessed as change in blood glucose level at 10 mg/kg, po administered QD measured 1 week after STZ challenge (reference value: 516.33 +/- 46.73 mg/dl). The class given is functional.
Series [6] relates to Mus musculus. Put plainly: Antidiabetic activity in streptozotocin-induced diabetic ICR mouse assessed as change in blood glucose level at 10 mg/kg, po administered QD measured 9 weeks after STZ challenge (reference value: 529.90 +/- 49.17 mg/dl). In kind it is functional.
The subject of series [7] is Mus musculus. Kind of series: Antidiabetic activity in streptozotocin-induced diabetic ICR mouse assessed as change in blood glucose level at 20 mg/kg, po administered QD measured 1 week after STZ challenge (reference value: 516.33 +/- 46.73 mg/dl). In kind it is functional.
In series [8] the test system is Mus musculus. Kind of series: Antidiabetic activity in streptozotocin-induced diabetic ICR mouse assessed as change in blood glucose level at 20 mg/kg, po administered QD measured 9 weeks after STZ challenge (reference value: 529.90 +/- 49.17 mg/dl). The class given is functional.
In series [9] the test system is Mus musculus. Put plainly: Protective activity against hearing loss in streptozotocin-induced diabetic ICR mouse using 4 KHz tone bursts at 10 mg/kg, po administered QD measured after 8 weeks by auditory brainstem response test. In kind it is functional, organism-based. More on the design: dose 10 mg/kg.
Series [10] concerns Mus musculus. Kind of series: Protective activity against hearing loss in streptozotocin-induced diabetic ICR mouse using 8 KHz tone bursts at 10 mg/kg, po administered QD measured after 8 weeks by auditory brainstem response test. The class given is functional, organism-based. The arrangement: dose 10 mg/kg.
The test system of series [11] is Mus musculus. Put plainly: Protective activity against hearing loss in streptozotocin-induced diabetic ICR mouse using 4 KHz tone bursts at 20 mg/kg, po administered QD measured after 8 weeks by auditory brainstem response test. The class given is functional, organism-based. More on the design: dose 20 mg/kg.
Series [12] relates to Mus musculus. Kind of series: Protective activity against hearing loss in streptozotocin-induced diabetic ICR mouse using 8 KHz tone bursts at 20 mg/kg, po administered QD measured after 8 weeks by auditory brainstem response test. More on the design: dose 20 mg/kg. In kind it is functional, organism-based.
The test system of series [13] is Mus musculus. Put plainly: Protective activity against hearing loss in streptozotocin-induced diabetic ICR mouse assessed as decrease in positive A peak latency at 10 mg/kg, po administered QD measured after 8 weeks by auditory middle latency response test. The arrangement: dose 10 mg/kg. The class given is functional, organism-based.
The test system of series [14] is Mus musculus. Put plainly: Protective activity against hearing loss in streptozotocin-induced diabetic ICR mouse assessed as decrease in positive A peak latency at 20 mg/kg, po administered QD measured after 8 weeks by auditory middle latency response test. The arrangement: dose 20 mg/kg. The class given is functional, organism-based.
The subject of series [15] is Mus musculus. Put plainly: Protective activity against hearing loss in streptozotocin-induced diabetic ICR mouse assessed as increase in negative A peak-positive A peak amplitude at 10 mg/kg, po administered QD measured after 8 weeks by auditory middle latency response test. The arrangement: dose 10 mg/kg. In kind it is functional, organism-based.
In series [16] the test system is Mus musculus. Kind of series: Protective activity against hearing loss in streptozotocin-induced diabetic ICR mouse assessed as increase in negative A peak-positive A peak amplitude at 20 mg/kg, po administered QD measured after 8 weeks by auditory middle latency response test. In kind it is functional, organism-based. The arrangement: dose 20 mg/kg.
The test system of series [17] is Mus musculus. Kind of series: Protective activity against hearing loss in streptozotocin-induced diabetic ICR mouse assessed as increase in signal intensity-to-noise ratio at 10 mg/kg, po administered QD measured after 8 weeks by transient evoked otoacoustic emission test. The class given is functional, organism-based. More on the design: dose 10 mg/kg.
Series [18] has as its system Mus musculus. Put plainly: Protective activity against hearing loss in streptozotocin-induced diabetic ICR mouse assessed as increase in signal intensity-to-noise ratio at 20 mg/kg, po administered QD measured after 8 weeks by transient evoked otoacoustic emission test. The class given is functional, organism-based. The arrangement: dose 20 mg/kg.
Series [19] is described as follows: Oral bioavailability in rat. In kind it is ADME, organism-based. The note with it: in vivo.
Series [20] can be described thus: Lipophilicity, log P of the compound. The class given is physicochemical. The note with it: octanol/water.

The source made the active and inactive calls. The calls are words filed in the database; no cut-off is given here.

Experimental findings from ChEMBL document CHEMBL2057192, “Small molecular weight PEGylation of diosgenin in an in vivo animal study for diabetic auditory impairment treatment” (Bioorg Med Chem Lett, 2012) are described below.

The term bioavailability denotes dose-corrected exposure relative to a reference, in per cent. Low values mean poor availability, high ones good availability. As usually defined, the logP is a log measure of how a compound divides between an organic and an aqueous phase. Read a high logP as a more lipophilic compound.

For the molecule `COCCOCCOCCOCCO[C@H]1CC[C@@]2(C)C(=CC[C@H]3[C@@H]4C[C@@H]5O[C@]6(CC[C@@H](C)CO6)[C@@H](C)[C@@H]5[C@@]4(C)CC[C@@H]32)C1`, the Activity in the series on Mus musculus [1] amounted to 30.5 g; in the series with Mus musculus [2] it was 33.72 g; in the series with Mus musculus [3] it was 32.55 g; in the series on Mus musculus [4] it was 37.6 g; in the series on Mus musculus [5], 522.18 mg/dL; with Mus musculus [6] it was 565.56 mg/dL. Also, the figures for the Activity in the series on Mus musculus [7] and in the series on Mus musculus [8] were 582.8 mg/dL and 501.6 mg/dL, respectively. The outcome in the series on Mus musculus [9], with Mus musculus [10], in the series with Mus musculus [11], with Mus musculus [12], in the series with Mus musculus [13] and with Mus musculus [14] was Active. The outcome in the series on Mus musculus [15], with Mus musculus [16], in the series with Mus musculus [17] and in the series with Mus musculus [18] was Active.
With `C[C@@H]1CC[C@@]2(OC1)O[C@H]1C[C@H]3[C@@H]4CC=C5C[C@@H](O[C@@H]6O[C@H](CO)[C@@H](O[C@@H]7O[C@@H](C)[C@H](O)[C@@H](O)[C@H]7O)[C@H](O)[C@H]6O[C@@H]6O[C@@H](C)[C@H](O)[C@@H](O)[C@H]6O)CC[C@]5(C)[C@H]4CC[C@]3(C)[C@H]1[C@@H]2C` [DIOSCIN], the bioavailability in series [19] was determined as 0.2%.
On to `C[C@@H]1CC[C@@]2(OC1)O[C@H]1C[C@H]3[C@@H]4CC=C5C[C@@H](O)CC[C@]5(C)[C@H]4CC[C@]3(C)[C@H]1[C@@H]2C` [DISOGENIN], for which the logP in [20] came out at 5.7. Also, the Activity with Mus musculus [1] is reported as 32.83 g; in the series on Mus musculus [2], 38.33 g; with Mus musculus [3], 33.67 g; in the series on Mus musculus [4], 38.67 g; with Mus musculus [5], “>=600 mg/dl”; with Mus musculus [6] it was “>=600 mg/dl”. For the same molecule, the Activity stood at 574.17 mg/dL in the series on Mus musculus [7] and 598 mg/dL with Mus musculus [8].
Take `C[C@@H]1CC[C@@]2(OC1)O[C@H]1C[C@H]3[C@@H]4CC=C5C[C@@H](O[C@@H]6O[C@H](CO)[C@@H](O)[C@H](O)[C@H]6O)CC[C@]5(C)[C@H]4CC[C@]3(C)[C@H]1[C@@H]2C` [DISOGLUSIDE]: the Activity was 33.17 g with Mus musculus [1]; 33.39 g with Mus musculus [2]; 31.58 g in the series on Mus musculus [3]; 34.92 g in the series with Mus musculus [4]; 583.55 mg/dL with Mus musculus [5]; “>=600 mg/dl” in the series on Mus musculus [6]. Besides, the results for the Activity in the series with Mus musculus [7] and in the series on Mus musculus [8] were 571.75 mg/dL and 592.33 mg/dL, respectively. In addition, the result in the series on Mus musculus [11], in the series on Mus musculus [12], in the series on Mus musculus [14] and in the series on Mus musculus [16] was Active.
